The test system of this assay is Bordetella pertussis. The assay can be described thus: microbe, parasite or virus in culture. In kind it is cell-based. The procedure: Cells were harvested by centrifugation, washed twice with NaCl 0.9% (w/v), and resuspended in fresh medium (de novo minimal CDM; see composition in Table 1) at a theoretical OD650 nm of 0.5, as calculated from the OD650 nm of the culture before harvest. 20 μl of this cell suspension were used to inoculate each well of a 96-well microtiter plate filled with 180 μl of de novo minimal CDM. Only the inner wells of the plate were used for cultures, in order to minimize evaporation, and two controls were included, in which the supplement solution was replaced with water.
The plate was then incubated for 7 days at 35° C. in a Biotek Synergy H1 reader with constant shaking, and growth was automatically monitored every 10 minutes as OD650 nm.
The relative growth yield and growth rate for each supplement was then averaged over the three independent repeats, and the standard deviation was calculated.

Setting [1] is: Bordetella pertussis, 168 h, read-out: Relative yield Average, 2 mM in medium, max OD650 nm relative to water controls.
[2] abbreviates: Bordetella pertussis, read-out: Relative growth rate Average, 2 mM in medium, first generation, relative to water controls.
Where [3] appears, read: Bordetella pertussis, 168 h, read-out: Relative yield Average, 20 mM in medium, max OD650 nm relative to water controls.
[4] abbreviates: Bordetella pertussis, read-out: Relative growth rate Average, 20 mM in medium, first generation, relative to water controls.
The mark [5] stands for this setting: Bordetella pertussis, 168 h, read-out: Relative yield Average, 0.1 mg/L in medium, max OD650 nm relative to water controls.
Setting [6] is: Bordetella pertussis, 168 h, read-out: Relative yield Average, 1 mg/L in medium, max OD650 nm relative to water controls.
Where [7] appears, read: Bordetella pertussis, read-out: Relative growth rate Average, 0.1 mg/L in medium, first generation, relative to water controls.
Setting [8] is: Bordetella pertussis, read-out: Relative growth rate Average, 1 mg/L in medium, first generation, relative to water controls.
Setting [9] is: 10 mg/L in medium, first generation, relative to water controls.
Setting [10] is: 2 mM in medium, max OD650 nm relative to water controls.
The mark [11] stands for this setting: Bordetella pertussis, read-out: Relative growth rate Average, 0.2 mg/L in medium, first generation, relative to water controls.

Read-outs that look alike come from different tables or passages of the source.

Turning to `N[C@@H](CC(=O)O)C(=O)O` [L-Aspartate], the “Relative growth rate Average” value is 96.87% (0.225 mM in medium, first generation, relative to water controls) and 72.32% (2.25 mM in medium, first generation, relative to water controls). Also, the “Relative yield Average” value is reported as 106.30% (0.225 mM in medium, max OD650 nm relative to water controls) and 99.74% (2.25 mM in medium, max OD650 nm relative to water controls).

In the case of `Cl.NCCCC[C@H](N)C(=O)O` [L-Lysine HCl], the activity at 2000 µM by setting is: under setting [1], over 105%; under setting [2], under 95%.

For `OB(O)O` [Supplement H3BO3, H3BO3], the “Relative growth rate Average” value (2.36 mg/L in medium, first generation, relative to water controls) amounted to 93.25%. Further, the “Relative yield Average” value (2.36 mg/L in medium, max OD650 nm relative to water controls) is recorded as 96.86%.

Turning to `NC(=O)CC[C@H](N)C(=O)O` [L-Glutamine], the activity at 2000 µM was in the range of 95 to 105% under setting [1] and 95 to 105% under setting [2]. The activity at 20000 µM is over 105% under setting [3] and under 95% under setting [4].

With `N[C@@H](CO)C(=O)O` [L-Serine], the activity at 2000 µM is, setting by setting: under setting [1], under 95%; under setting [2], 95 to 105%. Besides, the activity at 20000 µM under setting [3] is under 95%.

On to `CC(C)C[C@H](N)C(=O)O` [L-Leucine], for which the activity at 1330 µM reads like this: (Bordetella pertussis, 168 h, read-out: Relative yield Average, 1.33 mM in medium, max OD650 nm relative to water controls) 95 to 105%; (Bordetella pertussis, read-out: Relative growth rate Average, 1.33 mM in medium, first generation, relative to water controls) 95 to 105%.

As to `Cc1cc2nc3c(=O)[nH]c(=O)nc-3n(C[C@H](O)[C@H](O)[C@H](O)CO)c2cc1C` [Riboflavin], the activity at 0.3 µg/mL reads like this: (Bordetella pertussis, 168 h, read-out: Relative yield Average, 0.3 mg/L in medium, max OD650 nm relative to water controls) 95 to 105%; (Bordetella pertussis, read-out: Relative growth rate Average, 0.3 mg/L in medium, first generation, relative to water controls) over 105%. For the same compound, the activity at 3 µg/mL lay in the range of 95 to 105% (Bordetella pertussis, 168 h, read-out: Relative yield Average, 3 mg/L in medium, max OD650 nm relative to water controls) and 95 to 105% (Bordetella pertussis, read-out: Relative growth rate Average, 3 mg/L in medium, first generation, relative to water controls).

Consider `OC[C@H]1O[C@@](CO)(O[C@H]2O[C@H](CO)[C@@H](O)[C@H](O)[C@H]2O)[C@@H](O)[C@@H]1O` [Sucrose], for which the activity at 6000 µg/mL is, setting by setting: (Bordetella pertussis, 168 h, read-out: Relative yield Average, 6 g/L in medium, max OD650 nm relative to water controls) over 105%; (Bordetella pertussis, read-out: Relative growth rate Average, 6 g/L in medium, first generation, relative to water controls) 95 to 105%.

For the compound `O.O.[Ca+2].[Cl-].[Cl-]` [CaCl2•2H2O], the “Relative growth rate Average” value runs as follows: (0.3 mM in medium, first generation, relative to water controls) 107.49%; (3 mM in medium, first generation, relative to water controls) 92.03%. For the same compound, the “Relative yield Average” value came to 104.03% (0.3 mM in medium, max OD650 nm relative to water controls) and 107.34% (3 mM in medium, max OD650 nm relative to water controls).

Turning to `O=C(O)[C@@H]1CCCN1` [L-Proline], under setting [1], the activity at 2000 µM is 95 to 105%. Moreover, under setting [3], the activity at 20000 µM is over 105%.

With `O=c1cc[nH]c(=O)[nH]1` [Uracil], the activity at 0.1 µg/mL lay in the range of 95 to 105% under setting [5] and 95 to 105% under setting [7]. Moreover, the activity at 1 µg/mL turned out to be 101% under setting [6] and 94.8% under setting [8].

Turning to `C[C@H](N)C(=O)O` [L-Alanine], the activity at 2000 µM is 95 to 105% under setting [1] and over 105% under setting [2].

For the compound `[Cl-].[Cl-].[Zn+2]` [ZnCl2], under setting [9], the “Relative growth rate Average” value amounted to 103.27%.

As to `O=C([O-])O.[Na+]` [NaHCO3], the “Relative yield Average” value under setting [10] turned out to be 102.33%.

With `O=C[O-].[Na+]` [Sodium formate], the “Relative growth rate Average” value is given as 97.36% (2 mM in medium, first generation, relative to water controls) and 89.12% (20 mM in medium, first generation, relative to water controls). The “Relative yield Average” value under setting [10] worked out at 143.35% and the “Relative yield Average” value (20 mM in medium, max OD650 nm relative to water controls) is given as 168.28%.

On to Calcium pantothenate, for which the “Relative growth rate Average” value reads like this: (1 mg/L in medium, first generation, relative to water controls) 102.18%; under setting [9], 102.47%. The “Relative yield Average” value (1 mg/L in medium, max OD650 nm relative to water controls) was found to be 106.59% and the “Relative yield Average” value (10 mg/L in medium, max OD650 nm relative to water controls) is listed as 98.99%.

As for `Cc1ncc(CO)c(CO)c1O` [Pyridoxine], the activity at 0.2 µg/mL is 95 to 105% (Bordetella pertussis, 168 h, read-out: Relative yield Average, 0.2 mg/L in medium, max OD650 nm relative to water controls) and 95 to 105% under setting [11]. The activity at 2 µg/mL reads like this: (Bordetella pertussis, 168 h, read-out: Relative yield Average, 2 mg/L in medium, max OD650 nm relative to water controls) 95 to 105%; (Bordetella pertussis, read-out: Relative growth rate Average, 2 mg/L in medium, first generation, relative to water controls) 95 to 105%.

Turning to `O.O=S(=O)([O-])[O-].[Mn+2]` [MnSO4•H2O], the “Relative growth rate Average” value (1.89 mg/L in medium, first generation, relative to water controls) was 91.27% and the “Relative growth rate Average” value (18.9 mg/L in medium, first generation, relative to water controls) was 47.58%. The “Relative yield Average” value runs as follows: (1.89 mg/L in medium, max OD650 nm relative to water controls) 109.53%; (18.9 mg/L in medium, max OD650 nm relative to water controls) 91.55%.

As for `N[C@@H](CS)C(=O)O` [L-Cysteine], the activity at 250 µM came to 158% (Bordetella pertussis, 168 h, read-out: Relative yield Average, 0.25 mM in medium, max OD650 nm relative to water controls) and 155% (Bordetella pertussis, read-out: Relative growth rate Average, 0.25 mM in medium, first generation, relative to water controls). Besides, the activity at 2000 µM by setting is: under setting [1], over 105%; under setting [2], over 105%. The activity at 2500 µM is, setting by setting: (Bordetella pertussis, 168 h, read-out: Relative yield Average, 2.5 mM in medium, max OD650 nm relative to water controls) 212%; (Bordetella pertussis, read-out: Relative growth rate Average, 2.5 mM in medium, first generation, relative to water controls) 146%. The activity at 20000 µM by setting is: under setting [3], over 105%; under setting [4], over 105%.

For `N[C@@H](Cc1c[nH]cn1)C(=O)O` [L-Histidine], the activity at 2000 µM by setting is: under setting [1], 95 to 105%; under setting [2], over 105%. In addition, the activity at 20000 µM by setting is: under setting [3], under 95%; under setting [4], over 105%.

On to `Cl.N` [NH4Cl], for which the “Relative growth rate Average” value (1 mM in medium, first generation, relative to water controls) is 98.56%. Moreover, the “Relative yield Average” value (1 mM in medium, max OD650 nm relative to water controls) is reported as 104.80%.

For the compound `CSCC[C@H](N)C(=O)O` [L-Methionine], the activity at 20000 µM is over 105% under setting [3] and over 105% under setting [4]. Besides, under setting [2], the activity at 2000 µM was over 105%.

Turning to `O[C@H]1[C@H](O)[C@@H](O)[C@H](O)[C@@H](O)[C@H]1O` [Inositol], the activity at 2.8 µg/mL by setting is: (Bordetella pertussis, 168 h, read-out: Relative yield Average, 2.8 mg/L in medium, max OD650 nm relative to water controls) 95 to 105%; (Bordetella pertussis, read-out: Relative growth rate Average, 2.8 mg/L in medium, first generation, relative to water controls) 95 to 105%. The activity at 28 µg/mL was in the range of 95 to 105% (Bordetella pertussis, 168 h, read-out: Relative yield Average, 28 mg/L in medium, max OD650 nm relative to water controls) and 95 to 105% (Bordetella pertussis, read-out: Relative growth rate Average, 28 mg/L in medium, first generation, relative to water controls).

On to `Nc1nc(=O)c2nc(CNc3ccc(C(=O)N[C@@H](CCC(=O)O)C(=O)O)cc3)cnc2[nH]1` [Folate], for which the activity at 0.12 µg/mL is, setting by setting: (Bordetella pertussis, 168 h, read-out: Relative yield Average, 0.12 mg/L in medium, max OD650 nm relative to water controls) over 105%; (Bordetella pertussis, read-out: Relative growth rate Average, 0.12 mg/L in medium, first generation, relative to water controls) 95 to 105%. Further, the activity at 1.2 µg/mL reads like this: (Bordetella pertussis, 168 h, read-out: Relative yield Average, 1.2 mg/L in medium, max OD650 nm relative to water controls) 95 to 105%; (Bordetella pertussis, read-out: Relative growth rate Average, 1.2 mg/L in medium, first generation, relative to water controls) 95 to 105%.

Consider `Nc1ncnc2nc[nH]c12` [Adenine], for which the activity at 0.1 µg/mL reads like this: under setting [5], 95 to 105%; under setting [7], 95 to 105%. Moreover, the activity at 1 µg/mL reads like this: under setting [6], 95 to 105%; under setting [8], 95 to 105%.

Consider `O=C(O)CCCC[C@@H]1SC[C@@H]2NC(=O)N[C@@H]21` [Biotin], for which, under “Bordetella pertussis, read-out: Relative growth rate Average, 0.02 mg/L in medium, first generation, relative to water controls”, the activity at 0.02 µg/mL is over 105%. Under setting [11], the activity at 0.2 µg/mL fell in the range of 95 to 105%.

`N=C(N)NCCC[C@H](N)C(=O)O` [L-Arginine]: the activity at 2000 µM by setting is: under setting [1], over 105%; under setting [2], over 105%. The activity at 20000 µM under setting [4] is over 105%. In addition, the “Effect on growth rate in comparison to a minimally identified medium” value (no concentration stated) is recorded as “positive effect”.

Consider `OCC(O)CO` [Glycerol], for which the activity at 2000 µM by setting is: under setting [1], 95 to 105%; under setting [2], 95 to 105%. Moreover, the activity at 20000 µM by setting is: under setting [3], over 105%; under setting [4], under 95%.
